What was measured:
[1] = biological target: T1, Full length DGKζ (in-house protein M1-V929) (Homo sapiens, UniProt Q13574); assay: Biochemical DGK IC50 assay (ADP-Glo, lipid micelle substrate), DGKζ; settings: 1 hour preincubation, 1 hour reaction, room temperature
T1 construct: His (N); TEV site (N); made in house; host or cells: Sf9 insect cells (Bac-to-Bac baculovirus)
Outline: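 Full-length human DGKζ (M1-V929, His-TEV tagged, Sf9 baculovirus-expressed) with DAG/PS lipid micelle substrate in octyl glucoside, at room temperature in 50 mM HEPES, 10 mM MgCl2, 0.01 mM CaCl2 buffer.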

[2] = biological target: T2, Full length DGKα (D21-10BG, SignalChem) (Homo sapiens, UniProt P23743); assay: Biochemical DGK IC50 assay (ADP-Glo, lipid micelle substrate), DGKα; settings: 1 hour preincubation, 1 hour reaction, room temperature
T2 construct: Full length DGKα (D21-10BG, SignalChem); purchased SignalChem D21-10BG
Outline: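 Full-length human DGKα with DAG/PS lipid micelle substrate (in octyl glucoside buffer), reacted 1 h at room temperature in 50 mM HEPES, 10 mM MgCl2, 0.01 mM CaCl2, 0.1 mM Na3VO4, 0.01% BSA, 0.005% Tween-20. ADP formed read by ADP-Glo luminescence; IC50 from inhibition across increasing compound concentrations.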

T2 sequence (P23743 whole entry): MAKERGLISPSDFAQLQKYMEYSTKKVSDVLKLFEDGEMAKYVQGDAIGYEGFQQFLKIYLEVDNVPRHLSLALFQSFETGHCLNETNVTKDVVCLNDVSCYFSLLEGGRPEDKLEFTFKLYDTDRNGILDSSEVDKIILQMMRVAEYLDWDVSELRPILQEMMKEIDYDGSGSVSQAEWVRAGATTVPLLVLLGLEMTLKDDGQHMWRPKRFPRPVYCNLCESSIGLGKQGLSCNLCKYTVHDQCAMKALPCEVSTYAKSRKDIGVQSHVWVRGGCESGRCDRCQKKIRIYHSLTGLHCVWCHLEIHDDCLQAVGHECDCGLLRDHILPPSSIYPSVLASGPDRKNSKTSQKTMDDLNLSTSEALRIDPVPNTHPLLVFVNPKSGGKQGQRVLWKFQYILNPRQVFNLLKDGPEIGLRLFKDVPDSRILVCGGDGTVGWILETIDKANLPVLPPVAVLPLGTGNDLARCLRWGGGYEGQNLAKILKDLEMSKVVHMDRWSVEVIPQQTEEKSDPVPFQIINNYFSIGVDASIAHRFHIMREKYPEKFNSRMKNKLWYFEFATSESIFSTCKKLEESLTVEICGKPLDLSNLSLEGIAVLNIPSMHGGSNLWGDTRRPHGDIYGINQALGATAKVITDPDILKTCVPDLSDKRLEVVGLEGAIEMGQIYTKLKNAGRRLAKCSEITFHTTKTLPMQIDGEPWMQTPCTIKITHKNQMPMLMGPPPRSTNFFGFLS
T1 sequence (Q13574 1-929 isoform Q13574-4): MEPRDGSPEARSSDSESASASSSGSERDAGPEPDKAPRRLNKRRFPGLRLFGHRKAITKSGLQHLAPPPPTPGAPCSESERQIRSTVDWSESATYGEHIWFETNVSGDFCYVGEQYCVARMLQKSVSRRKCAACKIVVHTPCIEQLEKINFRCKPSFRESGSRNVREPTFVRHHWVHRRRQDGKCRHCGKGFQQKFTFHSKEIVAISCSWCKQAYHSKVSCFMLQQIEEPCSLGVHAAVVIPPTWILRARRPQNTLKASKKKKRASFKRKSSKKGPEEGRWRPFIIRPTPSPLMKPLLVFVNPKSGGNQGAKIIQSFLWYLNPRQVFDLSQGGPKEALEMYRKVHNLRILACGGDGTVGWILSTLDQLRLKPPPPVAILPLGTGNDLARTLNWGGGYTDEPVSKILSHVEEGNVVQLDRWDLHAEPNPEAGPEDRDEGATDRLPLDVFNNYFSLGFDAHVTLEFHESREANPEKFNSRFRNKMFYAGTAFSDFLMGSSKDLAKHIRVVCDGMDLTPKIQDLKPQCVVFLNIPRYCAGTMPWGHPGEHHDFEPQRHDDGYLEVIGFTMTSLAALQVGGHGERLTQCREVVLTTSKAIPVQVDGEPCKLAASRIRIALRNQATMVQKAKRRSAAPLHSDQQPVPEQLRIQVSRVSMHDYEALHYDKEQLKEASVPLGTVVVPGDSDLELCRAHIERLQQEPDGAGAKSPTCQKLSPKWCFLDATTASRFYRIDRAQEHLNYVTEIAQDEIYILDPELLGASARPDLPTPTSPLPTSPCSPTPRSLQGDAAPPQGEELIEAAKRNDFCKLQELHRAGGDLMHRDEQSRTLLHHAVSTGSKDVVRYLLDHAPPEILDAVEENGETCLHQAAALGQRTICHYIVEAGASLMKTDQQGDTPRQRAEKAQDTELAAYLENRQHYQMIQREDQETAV

| Compound | IC50 [1] [µM] | IC50 [2] [µM] |
| --- | --- | --- |
| CCn1c(CC#N)nc2c(N3C[C@@H](C)N(C(C)c4ccc5c(c4)c(=O)c(C)cn5C)C[C@@H]3C)nc(=O)n(C)c21 (stereo partly drawn) [Compound A193, 2-(6-((2S,5R)-4-(1-(1,3-dimethyl-4-oxo-1,4-dihydroquinolin-6-yl)ethyl)-2,5-dimethylpiperazin-1-yl)-9-ethyl-3-methyl-2-oxo-3,4,5,9-tetrahydro-2H-purin-8-yl)acetonitrile] | > 10 | > 150 |
| CC(c1ccc2nccnc2c1)N1C[C@H](C)N(c2cc(=O)n(C)c3sc(CC#N)nc23)C[C@H]1C (single isomer, unassigned) [Compound A194a] | 0.007 | 3.95 |
| CCn1c(CC#N)nc2c(N3C[C@@H](C)N(C(C)c4ccc(C)c(C)n4)C[C@@H]3C)nc(=O)n(C)c21 (stereo partly drawn) [Compound A138, 2-(6-((2S,5R)-4-(1-(5,6-dimethylpyridin-2-yl)ethyl)-2,5-dimethylpiperazin-1-yl)-9-ethyl-3-methyl-2-oxo-3,9-dihydro-2H-purin-8-yl)acetonitrile] | 0.949 | > 150 |
| CC(c1ccc(F)cc1C(F)(F)F)N1C[C@H](C)N(c2nc(=O)n(C)c3c2nc(CC#N)n3C)C[C@H]1C (single isomer, unassigned) [Compound A33a] | 0.804 | > 10 |
| CC(c1ccc2nccnc2c1)N1C[C@H](C)N(c2cc(=O)n(C)c3c2nc(CC#N)n3C)C[C@H]1C (stereo partly drawn) [Compound A1, 2-(7-((2S,5R)-2,5-dimethyl-4-(1-(quinoxalin-6-yl)ethyl)piperazin-1-yl)-3,4-dimethyl-5-oxo-4,5-dihydro-3H-imidazo[4,5-b]pyridin-2-yl)acetonitrile] | 0.019 | 20.2 |
| CCn1c(CC#N)nc2c(N3C[C@@H](C)N(C(C)c4ccc5c(=O)cc(C)oc5c4)C[C@@H]3C)nc(=O)n(C)c21 (stereo partly drawn) [Compound A191, 2-(6-((2S,5R)-2,5-dimethyl-4-(1-(2-methyl-4-oxo-4H-chromen-7-yl)ethyl)piperazin-1-yl)-9-ethyl-3-methyl-2-oxo-3,9-dihydro-2H-purin-8-yl)acetonitrile] | 0.078 | 40.9 |
| CC[C@@H]1CN(c2nc(=O)n(CC)c3c2nc(CC#N)n3C)[C@@H](C)CN1C(C)c1ccc2c(c1)OC(C)(C)CO2 (single isomer, unassigned) [Compound A66a] | 0.217 | 15.8 |
| CCn1c(CC#N)nc2c(N3C[C@@H](C)N(C(C)c4ccc5c(c4)OC(C)(C)CC5)C[C@@H]3C)nc(=O)n(C)c21 (single isomer, unassigned) [Compound A94a] | 0.006 | 16.6 |
| COC[C@H]1CN(C(C)c2ccc3c(c2)OC(C)(C)CO3)[C@H](C)CN1c1nc(=O)n(C)c2c1nc(CC#N)n2C (single isomer, unassigned) [Compound A12a] | 0.0027 | 18.8 |
| CCn1c(CC#N)nc2c(N3C[C@@H](C)N(C(C)c4csc(C(F)(F)F)n4)C[C@@H]3C)nc(=O)n(C)c21 (stereo partly drawn) [Compound A104, 2-(6-((2S,5R)-2,5-dimethyl-4-(1-(2-(trifluoromethyl)thiazol-4-yl)ethyl)piperazin-1-yl)-9-ethyl-3-methyl-2-oxo-3,9-dihydro-2H-purin-8-yl)acetonitrile] | 0.839 | > 150 |
| Cc1ccc(C(C)N2C[C@H](C)N(c3c(F)c(=O)n(C)c4c3nc(CC#N)n4C)C[C@H]2C)c(C(F)(F)F)c1 (single isomer, unassigned) [Compound A15a] | 1.41 | > 10 |
| CCc1nc2cc(C(C)N3C[C@H](C)N(c4nc(=O)n(C)c5c4nc(CC#N)n5CC)C[C@H]3C)ccc2s1 (mixture of isomers) [Compound A95, 2-(9-ethyl-6-((2S,5R)-4-(1-(2-ethylbenzo[d]thiazol-5-yl)ethyl)-2,5-dimethylpiperazin-1-yl)-3-methyl-2-oxo-3,9-dihydro-2H-purin-8-yl)acetonitrile] | 0.042 | 50.5 |
| CC[C@@H]1CN(c2nc(=O)n(C)c3c2nc(CC#N)n3C)[C@@H](C)CN1C(C)c1ccc2ncc(C)nc2c1 (single isomer, unassigned) [Compound A50b] | 0.332 | 13.6 |
| CCn1c(CC#N)nc2c(N3C[C@@H](C)N(C(C)c4ccc(C(F)(F)F)c(C)c4)C[C@@H]3C)nc(=O)n(C)c21 (stereo partly drawn) [Compound A137, 2-(6-((2S,5R)-2,5-dimethyl-4-(1-(3-methyl-4-(trifluoromethyl)phenyl)ethyl)piperazin-1-yl)-9-ethyl-3-methyl-2-oxo-3,9-dihydro-2H-purin-8-yl)acetonitrile] | 0.064 | 48.7 |
| COC[C@H]1CN(C(C)c2ccc(F)cc2C(F)(F)F)[C@H](C)CN1c1nc(=O)n(C)c2c1nc(CC#N)n2C (single isomer, unassigned) [Compound A10a] | 0.405 | > 10 |
| CCn1c(CC#N)nc2c(N3C[C@@H](C)N(C(C)c4ccc5c(n4)OC(C)(C)CO5)C[C@@H]3C)nc(=O)n(C)c21 (single isomer, unassigned) [Compound A74b] | 4.87 | > 150 |
| CCn1c(CC#N)nc2c(N3C[C@@H](C)N(C(C)c4cc5c(cc4F)OCC(C)(C)O5)C[C@@H]3C)nc(=O)n(C)c21 (single isomer, unassigned) [Compound A157b] | 0.346 | 55.7 |
| CCn1c(CC#N)nc2c(N3C[C@@H](C)N(C(C)c4cccc(C(C)C)c4)C[C@@H]3C)nc(=O)n(C)c21 (single isomer, unassigned) [Compound A108a] | 0.007 | 65.2 |
| CC[C@H]1CN(C(C)c2ccc3ncc(C)nc3c2)[C@H](CC)CN1c1nc(=O)n(C)c2c1nc(CC#N)n2C (single isomer, unassigned) [Compound A51b] | 0.265 | 22.3 |
| CCn1c(CC#N)nc2c(N3C[C@@H](C)N(C(C)c4ccc(F)c5c4OC(C)(C)O5)C[C@@H]3C)nc(=O)n(C)c21 (single isomer, unassigned) [Compound A185a] | 0.806 | 121 |
| CC(c1cc2c(cc1F)OCC(C)(C)O2)N1C[C@H](C)N(c2nc(=O)n(C)c3c2nc(CC#N)n3C)C[C@H]1C (single isomer, unassigned) [Compound A69b] | 0.147 | 6.09 |
| CCn1c(CC#N)nc2c(N3C[C@@H](C)N(C(C)c4ccc5c(c4)OC(C)(C)C5)C[C@@H]3C)nc(=O)n(C)c21 (stereo partly drawn) [Compound A97, 2-(6-((2S,5R)-4-(1-(2,2-dimethyl-2,3-dihydrobenzofuran-6-yl)ethyl)-2,5-dimethylpiperazin-1-yl)-9-ethyl-3-methyl-2-oxo-3,9-dihydro-2H-purin-8-yl)acetonitrile] | 0.011 | 51.1 |
| CC[C@@H]1CN(c2nc(=O)n(C)c3c2nc(CC#N)n3C)[C@@H](C)CN1C(C)c1ccc2c(c1)OC(C)(C)CO2 (single isomer, unassigned) [Compound A63b] | 0.022 | 7.4 |
| CC(c1ccc2c(c1F)OC(C)(C)CO2)N1C[C@H](C)N(c2nc(=O)n(C)c3c2nc(CC#N)n3C)C[C@H]1C (stereo partly drawn) [Compound A70, 2-(6-((2S,5R)-4-(1-(5-fluoro-3,3-dimethyl-2,3-dihydrobenzo[b][1,4]dioxin-6-yl)ethyl)-2,5-dimethylpiperazin-1-yl)-3,9-dimethyl-2-oxo-3,9-dihydro-2H-purin-8-yl)acetonitrile] | 0.008 | 9.69 |
| Cc1ccc(C(C)N2C[C@H](C)N(c3c(F)c(=O)n(C)c4c3nc(CC#N)n4C)C[C@H]2C)c(C(F)(F)F)c1 (single isomer, unassigned) [Compound A15b] | 0.291 | > 10 |
| CCn1c(CC#N)nc2c(N3C[C@@H](C)N(C(C)c4ccc5c(n4)C(C)(C)CO5)C[C@@H]3C)nc(=O)n(C)c21 (stereo partly drawn) [Compound A181, 2-(6-((2S,5R)-4-(1-(3,3-dimethyl-2,3-dihydrofuro[3,2-b]pyridin-5-yl)ethyl)-2,5-dimethylpiperazin-1-yl)-9-ethyl-3-methyl-2-oxo-3,9-dihydro-2H-purin-8-yl)acetonitrile] | 0.017 | > 150 |
| CCn1c(CC#N)nc2c(N3C[C@@H](C)N(C(C)c4ccc5c(c4)CN(CC(F)(F)F)C5=O)C[C@@H]3C)nc(=O)n(C)c21 (stereo partly drawn) [Compound A82, 2-(6-((2S,5R)-2,5-dimethyl-4-(1-(1-oxo-2-(2,2,2-trifluoroethyl)isoindolin-5-yl)ethyl)piperazin-1-yl)-9-ethyl-3-methyl-2-oxo-3,9-dihydro-2H-purin-8-yl)acetonitrile] | 0.201 | 9.52 |
| CC(c1ccc2c(c1)OC(C)(C)O2)N1C[C@H](C)N(c2nc(=O)n(C)c3c2nc(CC#N)n3C)C[C@H]1C (single isomer, unassigned) [Compound A98b] | 0.262 | 19.7 |
| CCn1c(CC#N)nc2c(N3C[C@@H](C)N(C(C)c4ccc5nc(C)sc5c4)C[C@@H]3C)nc(=O)n(C)c21 (single isomer, unassigned) [Compound A56a] | 0.81 | 108 |
| CCn1c(CC#N)nc2c(N3C[C@@H](C)N(C(C)c4ccc5c(n4)OC(C)(C)C5)C[C@@H]3C)nc(=O)n(C)c21 (stereo partly drawn) [Compound A180, 2-(6-((2S,5R)-4-(1-(2,2-dimethyl-2,3-dihydrofuro[2,3-b]pyridin-6-yl)ethyl)-2,5-dimethylpiperazin-1-yl)-9-ethyl-3-methyl-2-oxo-3,9-dihydro-2H-purin-8-yl)acetonitrile] | 4.44 | > 150 |

— patent US20260125378A2, “Heterocyclic Compounds” (BeOne Medicines I GmbH, priority 2023, published 2026)
